# Measurements as given in patent EP3723745B1, “PHENOXY ACIDS FOR THE TREATMENT OF NEUROMUSCULAR DISORDERS” (NMD Pharma A/S, priority 2017, dated 2019).
# Target: T1, CIC-1 channels (Rattus norvegicus, UniProt P35524)
# T1 construct: from tissue; host or cells: intact soleus muscle of 12-14-week old Wistar rats
# T1 sequence (P35524 1-994): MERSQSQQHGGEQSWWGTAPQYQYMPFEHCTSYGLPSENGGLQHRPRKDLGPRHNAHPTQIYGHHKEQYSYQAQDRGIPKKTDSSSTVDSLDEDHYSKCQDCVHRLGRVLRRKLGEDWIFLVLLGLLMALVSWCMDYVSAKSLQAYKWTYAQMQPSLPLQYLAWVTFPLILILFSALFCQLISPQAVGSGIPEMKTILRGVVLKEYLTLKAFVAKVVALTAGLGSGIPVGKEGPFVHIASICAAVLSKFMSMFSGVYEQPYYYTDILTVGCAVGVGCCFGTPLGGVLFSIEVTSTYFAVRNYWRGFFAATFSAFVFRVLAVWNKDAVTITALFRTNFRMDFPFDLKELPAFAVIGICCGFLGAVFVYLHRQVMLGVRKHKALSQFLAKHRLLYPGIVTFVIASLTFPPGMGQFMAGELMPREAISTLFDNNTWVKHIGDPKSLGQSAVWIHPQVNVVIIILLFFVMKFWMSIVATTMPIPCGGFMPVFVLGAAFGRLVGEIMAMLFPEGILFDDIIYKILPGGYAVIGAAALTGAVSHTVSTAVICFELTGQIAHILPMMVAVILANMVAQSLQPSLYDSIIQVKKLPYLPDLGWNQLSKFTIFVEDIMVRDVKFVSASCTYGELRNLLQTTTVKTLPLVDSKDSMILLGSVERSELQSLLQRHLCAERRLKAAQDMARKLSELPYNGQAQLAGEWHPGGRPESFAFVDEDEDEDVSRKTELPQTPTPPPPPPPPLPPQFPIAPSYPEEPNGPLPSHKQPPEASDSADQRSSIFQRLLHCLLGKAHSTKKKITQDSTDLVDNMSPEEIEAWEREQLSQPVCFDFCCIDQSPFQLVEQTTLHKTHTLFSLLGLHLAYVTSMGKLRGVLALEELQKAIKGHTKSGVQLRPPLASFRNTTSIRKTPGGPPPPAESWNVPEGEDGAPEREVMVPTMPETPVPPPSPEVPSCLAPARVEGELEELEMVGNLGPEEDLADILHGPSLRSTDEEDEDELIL
# Test: Electrophysiological measurement of compound inhibition of CIC-1 in rat muscle (Gm, three micro-electrodes technique)
# Type: cell-based
# Details: reduction of Gm in fibres of whole rat soleus muscles, approx. 30°C; n = number of experiments
# Source text: Table 2: Inhibition of CIC-1 ion channel using compounds of the invention
row,EC50,Compound
1,4.5 ± 0.8 µM,"O=C(O)[C@H](CCF)Oc1ccc(Br)cc1 [Compound A-87, (2S)-2-(4-bromophenoxy)-4-fluorobutanoic acid]"
2,4.5 µM,"CC(C)[C@H](Oc1ccc(Br)cc1F)C(=O)O [Compound A-27, (2S)-2-(4-bromo-2-fluorophenoxy)-3-methylbutanoic acid]"

row,Compound,EC50
1,"[2H][C@@](CC)(Oc1ccc(Br)cc1)C(=O)O [Compound A-60, (2S)-2-(4-bromophenoxy)(2-^2H)butanoic acid]",7.5 ± 1 µM
